Assay results taken from ChEMBL document CHEMBL4229526, “Quinoxaline derivatives as potential antitrypanosomal and antileishmanial agents” (Bioorg Med Chem, 2018).
pIC50: −log10 of the molar value.

How the values were obtained:
Trypanosoma brucei = assay: Antitrypanosomal activity against Trypanosoma brucei Lister 427 bloodstream forms after 48 hrs by resazurin dye based fluorescence assay; type: functional, organism-based; details: Lister 427, 48 h
Trypanosoma cruzi [1] = assay: Antitrypanosomal activity against Trypanosoma cruzi Tulahuen trypomastigote forms infected in monkey LLC-MK2 cells after 24 hrs by CellTiter-Glo luminescent cell viability assay; type: functional, organism-based; details: LLC-MK2, 24 h
Leishmania donovani [2] = assay: Antileishmanial activity against Leishmania donovani MHOM/SD/62/1S-CL2D LdBOB axenic amastigotes harboring eGFP after 72 hrs by resazurin dye based fluorescence assay; type: functional, organism-based
Trypanosoma cruzi [3] = assay: Antitrypanosomal activity against Trypanosoma cruzi Tulahuen amastigote forms infected in rat H9c2 cells assessed as reduction in infected cells after 72 hrs by DRAQ5 DNA dye based confocal microscopic analysis; type: functional, organism-based; details: H9c2, 72 h
Trypanosoma cruzi [4] = assay: Antitrypanosomal activity against Trypanosoma cruzi Tulahuen amastigote forms infected in rat H9c2 cells assessed as reduction in amastigote number per cell after 72 hrs by DRAQ5 DNA dye based confocal microscopic analysis; type: functional, organism-based; details: H9c2, 72 h
H9c2 = assay: Cytotoxicity against rat H9c2 cells infected with Trypanosoma cruzi Tulahuen amastigote forms assessed as reduction in cell number after 72 hrs by DRAQ5 DNA dye based confocal microscopic analysis; details: H9c2, 72 h
Leishmania donovani [5] = assay: Antileishmanial activity against Leishmania donovani MHOM/SD/62/1S-CL2D LdBOB amastigotes harboring eGFP infected in human THP1 cells assessed as reduction in infected cells after 96 hrs by DAPI staining based microscopic analysis; type: functional, organism-based; details: THP-1, 96 h
Leishmania donovani [6] = assay: Antileishmanial activity against Leishmania donovani MHOM/SD/62/1S-CL2D LdBOB amastigotes harboring eGFP infected in human THP1 cells assessed as reduction in number of amastigotes per cell after 96 hrs by DAPI staining based microscopic analysis; type: functional, organism-based; details: THP-1, 96 h
THP-1 = assay: Cytotoxicity against human THP1 cells infected with Leishmania donovani MHOM/SD/62/1S-CL2D LdBOB amastigotes harboring eGFP assessed as reduction in cell number after 96 hrs by DAPI staining based microscopic analysis; details: THP-1, 96 h
[7] = Cytotoxicity against human HepG2 cells after 48 hrs by CellTiter-Glo cell viability assay; type: cell-based
Leishmania donovani [8] = assay: Potency index, ratio of amphotericin B IC50 to test compound IC50 for Leishmania donovani MHOM/SD/62/1S-CL2D LdBOB axenic amastigotes harboring eGFP; type: functional
Leishmania donovani [9] = assay: Potency index, ratio of miltefosine IC50 to test compound IC50 for Leishmania donovani MHOM/SD/62/1S-CL2D LdBOB axenic amastigotes harboring eGFP; type: functional

Structure (SMILES) | pIC50 (Trypanosoma brucei) | pIC50 (Trypanosoma cruzi [1]) | pIC50 (Leishmania donovani [2]) | pIC50 (Trypanosoma cruzi [3]) | pIC50 (Trypanosoma cruzi [4]) | pIC50 (H9c2) | pIC50 (Leishmania donovani [5]) | pIC50 (Leishmania donovani [6]) | pIC50 (THP-1) | CC50 at 48 h [7] | Ratio IC50 (Leishmania donovani [8]) | Ratio IC50 (Leishmania donovani [9])
COc1ccc(-c2nc3ccccc3nc2-c2ccc(OC)cc2)cc1 | 4.50 | < 4.30 | < 4.30 | 4.90 | 5.00 | < 4.30 | < 4.30 | < 4.30 | < 4.30 | > 100 µM | – | –
Clc1ccc2nc(-c3ccccc3)c(-c3ccccc3)nc2c1 | 4.60 | < 4.30 | < 4.30 | 4.70 | 4.80 | < 4.30 | < 4.30 | < 4.30 | < 4.30 | > 100 µM | – | –
Clc1cc2nc(-c3ccccc3)c(-c3ccccc3)nc2cc1Cl | 4.40 | < 4.30 | < 4.30 | < 4.30 | < 4.30 | < 4.30 | < 4.30 | < 4.30 | < 4.30 | > 100 µM | – | –
Cc1ccc(-c2nc3cc(Cl)c(Cl)cc3nc2-c2ccccc2)cc1 | 4.70 | < 4.30 | < 4.30 | 4.80 | 5.00 | < 4.30 | < 4.30 | < 4.30 | < 4.30 | > 100 µM | – | –
CS(=O)(=O)c1ccc(-c2nc3ccc(Br)cc3nc2-c2ccc(Cl)cc2)cc1 | 5.90 | 7.22 | 6.49 | 5.70 | 5.70 | 5.90 | 5.40 | 5.60 | 5.70 | 2 µM | 5.3 | 26.3
COc1ccc2nc(-c3ccc(Cl)cc3)c(-c3ccc([S+](C)[O-])cc3)nc2c1 (stereo unspecified) | 5.40 | 5.98 | 5.50 | 4.90 | 5.00 | 5.20 | 4.90 | 4.90 | 4.90 | 7.94 µM | – | –
CS(=O)(=O)c1ccc(-c2nc3ccc(Cl)cc3nc2-c2ccc(Cl)cc2)cc1 | 5.60 | 7.05 | 6.49 | 5.70 | 5.70 | 5.80 | 5.30 | 5.30 | 5.80 | 2 µM | 5.3 | 26.3
C[S+]([O-])c1ccc(-c2nc3ccc(Cl)cc3nc2-c2ccc(Cl)cc2)cc1 (stereo unspecified) | 6.20 | 7.00 | 6.49 | 5.70 | 5.80 | 5.80 | 5.50 | 5.40 | 5.80 | 1.58 µM | 5.3 | 26.3
